Measured values reported in ChEMBL document CHEMBL1914342, “Synthesis and in vitro EGFR (ErbB1) tyrosine kinase inhibitory activity of 4-N-substituted 6-aryl-7H-pyrrolo[2,3-d]pyrimidine-4-amines” (Eur J Med Chem, 2011).
Calls of active or inactive are those of the source. The rule behind the calls is not given here.

Tests used:
[1] = biological target: T1, Epidermal growth factor receptor (Homo sapiens, UniProt P00533); experiment: Inhibition of EGFR by Z-LYTE assay
[2] = biological target: T1, Epidermal growth factor receptor; experiment: Inhibition of EGF-induced EGFR internalization in human HeLa cells assessed as subcellular localization of receptor at 500 nM measured after 15 to 20 mins post receptor activation by immunostaining-based confocal microscopy analysis; assay type: cell-based

T1 sequence (P00533 whole entry): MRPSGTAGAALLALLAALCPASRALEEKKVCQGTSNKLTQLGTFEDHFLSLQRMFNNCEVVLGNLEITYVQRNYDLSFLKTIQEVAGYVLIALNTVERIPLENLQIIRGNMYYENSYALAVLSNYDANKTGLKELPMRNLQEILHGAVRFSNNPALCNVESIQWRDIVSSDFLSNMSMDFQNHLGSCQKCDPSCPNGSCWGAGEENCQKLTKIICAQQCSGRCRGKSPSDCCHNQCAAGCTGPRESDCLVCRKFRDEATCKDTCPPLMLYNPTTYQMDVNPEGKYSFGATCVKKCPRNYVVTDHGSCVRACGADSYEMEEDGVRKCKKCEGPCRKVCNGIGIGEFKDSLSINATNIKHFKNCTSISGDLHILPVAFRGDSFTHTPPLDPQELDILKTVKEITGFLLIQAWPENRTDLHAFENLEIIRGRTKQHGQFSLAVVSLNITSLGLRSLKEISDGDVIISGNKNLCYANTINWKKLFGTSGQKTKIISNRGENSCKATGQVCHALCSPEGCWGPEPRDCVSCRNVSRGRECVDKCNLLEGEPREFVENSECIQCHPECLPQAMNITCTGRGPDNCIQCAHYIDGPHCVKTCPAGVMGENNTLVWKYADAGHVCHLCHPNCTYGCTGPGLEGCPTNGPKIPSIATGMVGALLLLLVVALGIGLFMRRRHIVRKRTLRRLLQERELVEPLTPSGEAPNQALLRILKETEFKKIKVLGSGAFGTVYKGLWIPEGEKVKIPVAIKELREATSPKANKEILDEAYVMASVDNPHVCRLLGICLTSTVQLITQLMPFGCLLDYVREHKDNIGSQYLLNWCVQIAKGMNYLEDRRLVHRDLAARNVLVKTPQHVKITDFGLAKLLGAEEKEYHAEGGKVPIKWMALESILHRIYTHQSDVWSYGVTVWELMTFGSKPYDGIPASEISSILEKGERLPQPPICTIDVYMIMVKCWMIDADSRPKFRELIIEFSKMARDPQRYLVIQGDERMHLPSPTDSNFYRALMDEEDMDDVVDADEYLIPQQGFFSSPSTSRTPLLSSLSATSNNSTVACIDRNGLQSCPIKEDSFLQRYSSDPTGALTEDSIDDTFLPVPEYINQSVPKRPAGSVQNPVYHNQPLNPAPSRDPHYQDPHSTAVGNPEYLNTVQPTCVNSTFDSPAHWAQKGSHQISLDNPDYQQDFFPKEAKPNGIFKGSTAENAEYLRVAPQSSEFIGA

Row | SMILES | IC50 [1] [µM] | inhibition [2]
1 | CC(Nc1ncnc2[nH]c(-c3ccc(O)cc3)cc12)c1cccc2ccccc12 (racemic) | 1.01 | 
2 | Cc1ccccc1C(C)Nc1ncnc2[nH]c(-c3ccc(O)cc3)cc12 (racemic) | 0.017 | 
3 | Cc1cccc(C(C)Nc2ncnc3[nH]c(-c4ccc(O)cc4)cc23)c1 (racemic) | 0.095 | 
4 | Oc1ccc(-c2cc3c(NCc4cccc(F)c4)ncnc3[nH]2)cc1 | 0.052 | 
5 | C[C@@H](Nc1ncnc2[nH]c(-c3ccc(Br)cc3)cc12)c1ccc(F)cc1 | 0.029 | 
6 | CC(Nc1ncnc2[nH]c(-c3ccc(O)cc3)cc12)c1ccc(C(F)(F)F)cc1 (racemic) | 4.61 | 
7 | C[C@@H](Nc1ncnc2[nH]c(-c3ccccc3)cc12)c1ccc(F)cc1 | 0.033 | 
8 | C[C@@H](Nc1ncnc2[nH]c(-c3ccc(O)cc3)cc12)c1ccc(Br)cc1 | 0.062 | 
9 | C[C@@H](Nc1ncnc2[nH]c(-c3ccc(C#N)cc3)cc12)c1ccc(F)cc1 | 0.014 | 
10 | Oc1ccc(-c2cc3c(NCc4ccccc4F)ncnc3[nH]2)cc1 | 0.045 | 
11 | Oc1ccc(-c2cc3c(NCc4ccc(F)cc4)ncnc3[nH]2)cc1 | 0.026 | 
12 | Cc1ccc([C@@H](C)Nc2ncnc3[nH]c(-c4ccc(O)cc4)cc23)cc1 | 0.45 | 
13 | C[C@@H](Nc1ncnc2[nH]c(-c3ccc(Br)cc3)cc12)c1ccccc1 | 0.063 | 
14 | C[C@@H](Nc1ncnc2[nH]c(-c3ccc(F)cc3)cc12)c1ccc(F)cc1 | 0.027 | 

The next compounds have a lower IC50 [1] than those just listed; values first:

Row | IC50 [1] [µM] | inhibition [2] | SMILES
15 | 0.0033 |  | Oc1ccc(-c2cc3c(NCc4ccccc4)ncnc3[nH]2)cc1
16 | 0.004 |  | CC[C@@H](Nc1ncnc2[nH]c(-c3ccc(O)cc3)cc12)c1ccccc1
17 | 0.0066 |  | C[C@@H](Nc1ncnc2[nH]c(-c3ccc(F)cc3)cc12)c1ccccc1
18 | 0.0033 |  | C[C@@H](Nc1nc[nH]c2nc(-c3ccccc3)cc1-2)c1ccccc1
19 | 0.0037 | inactive | C[C@@H](Nc1ncnc2[nH]c(-c3ccc(O)cc3)cc12)c1ccccc1
20 | 0.0047 |  | COc1ccc(-c2cc3c(N[C@H](C)c4ccccc4)ncnc3[nH]2)cc1
21 | 0.012 |  | C[C@@H](Nc1ncnc2[nH]c(-c3ccc(C#N)cc3)cc12)c1ccccc1
22 | 0.008 |  | C[C@@H](Nc1ncnc2[nH]c(-c3ccc(O)cc3)cc12)c1ccccc1F
23 | 0.0038 |  | C[C@@H](Nc1ncnc2[nH]c(-c3ccc(O)cc3)cc12)c1ccc(F)cc1
24 | 0.009 |  | C[C@@H](Nc1ncnc2[nH]c(-c3ccc(O)cc3)cc12)c1cccc(F)c1
